Legend:
large (Lg) crabgrass [1] = assay: Test A preemergence; assay type: in vivo, Digitaria sanguinalis
Summary of the method: (§1)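 Visual injury scored 0–100 (100 = complete control) against untreated controls about 10 days after treatment in a greenhouse. Test chemicals, formulated with surfactant in non-phytotoxic solvent, were sprayed on soil preemergence or on 2-10 cm, one- to two-leaf plants postemergence.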

barnyardgrass = assay: Test A postemergence; assay type: in vivo, Echinochloa crus-galli; settings: 0 to 100 scale where 0 is no effect and 100 is complete control
Summary of the method: as §1

velvetleaf = assay: Test A postemergence; assay type: in vivo, Abutilon theophrasti; settings: 0 to 100 scale where 0 is no effect and 100 is complete control
Summary of the method: as §1

corn [2] = assay: Test A postemergence; assay type: in vivo, Zea mays; settings: 0 to 100 scale where 0 is no effect and 100 is complete control
Summary of the method: as §1

Italian ryegrass = assay: Test C preemergence; assay type: in vivo, Lolium multiflorum; settings: for Ryegrass, Italian plant response rating: preemergence
Summary of the method: (§2)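 Greenhouse herbicide screen. Pre: seeded loam/sand, sprayed at planting. Post: 1–4 leaf plants (2–18 cm) in peat-based mix. Formulation: solvent mixture + surfactant, non-phytotoxic. Readout: visual % control vs untreated, 13–15 d; dash = not tested.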

wheat, winter [3] = assay: Test C preemergence; assay type: in vivo, Triticum aestivum; settings: for Wheat plant response rating: preemergence
Summary of the method: as §2

corn [4] = assay: Test C preemergence; assay type: in vivo, Zea mays; settings: for Corn plant response rating: preemergence
Summary of the method: as §2

johnsongrass [5] = assay: Test C preemergence; assay type: in vivo, Sorghum halepense; settings: for Johnsongrass plant response rating: preemergence
Summary of the method: as §2

yellow nutsedge [6] = assay: Test C preemergence; assay type: in vivo, Cyperus esculentus; settings: for Nutsedge, Yellow plant response rating: preemergence
Summary of the method: as §2

wheat, winter [7] = assay: Test C postemergence; assay type: in vivo, Triticum aestivum; settings: for Plant response rating, Wheat: Postemergence, scale 0 to 100 (0 no effect, 100 complete control)
Summary of the method: as §2

corn [8] = assay: Test C postemergence; assay type: in vivo, Zea mays; settings: for Plant response rating, Corn: Postemergence
Summary of the method: as §2

large (Lg) crabgrass [9] = assay: Test C postemergence; assay type: in vivo, Digitaria sanguinalis; settings: for Plant response rating, Crabgrass, Large: Postemergence
Summary of the method: as §2

giant foxtail = assay: Test C postemergence; assay type: in vivo, Setaria faberii; settings: for Plant response rating, Foxtail, Giant: Postemergence
Summary of the method: as §2

johnsongrass [10] = assay: Test C postemergence; assay type: in vivo, Sorghum halepense; settings: for Plant response rating, Johnsongrass: Postemergence
Summary of the method: as §2

yellow nutsedge [11] = assay: Test C postemergence; assay type: in vivo, Cyperus esculentus; settings: for Plant response rating, Nutsedge, Yellow: Postemergence, scale 0 to 100 (0 no effect, 100 complete control)
Summary of the method: as §2

[12] = 16 g ai/ha, scale 0 to 100 (0 no effect, 100 complete control)
[13] = 62 g ai/ha, scale 0 (no effect) to 100 (complete control)
[14] = 125 g ai/ha, scale 0 (no effect) to 100 (complete control)
[15] = Preemergence, 31 g ai/ha, scale 0 to 100, 0 no effect, 100 complete control
[16] = 16 g ai/ha, postemergence, visual rating, scale 0 to 100 (0 no effect, 100 complete control), 13 to 15 days
[17] = 31 g ai/ha, scale 0 to 100 (0 no effect, 100 complete control), 13 to 15 days
[18] = 62 g ai/ha, scale 0 to 100 (0 no effect, 100 complete control)

**Q.** `Fc1cnc(Oc2cccc(C(F)F)c2-n2cc(Cl)cn2)nc1` [Compound 94] was tested. Which “Plant response rating, Crabgrass, Large” value (large (Lg) crabgrass [1]; 125 g ai/ha, 0 to 100 scale where 0 is no effect and 100 is complete control) did it give?
**A.** Its value is 100.

**Q.** What about the “Crabgrass, Large plant response rating” value (large (Lg) crabgrass [1]; 500 g ai/ha, 0 to 100 scale, 0 no effect, 100 complete control, approx. 10 days) of the same molecule?
**A.** Its value is 100.

**Q.** What about the “Plant response rating, Barnyardgrass” value (barnyardgrass; 125 g ai/ha) of the same molecule?
**A.** The value was 20.

**Q.** And the “Plant response rating, Barnyardgrass” value (barnyardgrass; 500 g ai/ha)?
**A.** The value was 90.

**Q.** What about the “Plant response rating, Velvetleaf” value (velvetleaf; 125 g ai/ha) of the same molecule?
**A.** Its value is 90.

**Q.** What about the “Plant response rating, Velvetleaf” value (velvetleaf; 500 g ai/ha) of the same molecule?
**A.** Its value is 100.

**Q.** What about the “Plant response rating, Corn” value (corn [2]; 125 g ai/ha) of the same molecule?
**A.** Its value is 30.

**Q.** And the “Plant response rating, Corn” value (corn [2]; 500 g ai/ha)?
**A.** Its value is 50.

**Q.** And the “Ryegrass, Italian plant response rating” value (Italian ryegrass; [12])?
**A.** Its value is 0.

**Q.** And the “Ryegrass, Italian plant response rating” value (Italian ryegrass; [13])?
**A.** Its value is 10.

**Q.** And the “Ryegrass, Italian plant response rating” value (Italian ryegrass; [14])?
**A.** The value was 50.

**Q.** What about the “Plant response rating, Ryegrass, Italian” value (Italian ryegrass; [15]) of the same molecule?
**A.** The value was 0.

**Q.** What about the “Wheat plant response rating” value (wheat, winter [3]; [12]) of the same molecule?
**A.** The value was 0.

**Q.** And the “Wheat plant response rating” value (wheat, winter [3]; [13])?
**A.** Its value is 0.

**Q.** What about the “Wheat plant response rating” value (wheat, winter [3]; [14]) of the same molecule?
**A.** The value was 5.

**Q.** And the “Plant response rating, Wheat” value (wheat, winter [3]; [15])?
**A.** Its value is 0.

**Q.** And the “Corn plant response rating” value (corn [4]; [12])?
**A.** Its value is 5.

**Q.** What about the “Corn plant response rating” value (corn [4]; [13]) of the same molecule?
**A.** The value was 5.

**Q.** What about the “Corn plant response rating” value (corn [4]; [14]) of the same molecule?
**A.** The value was 55.

**Q.** And the “Plant response rating, Corn” value (corn [4]; [15])?
**A.** Its value is 5.

**Q.** And the “Johnsongrass plant response rating” value (johnsongrass [5]; [12])?
**A.** The value was 0.

**Q.** What about the “Johnsongrass plant response rating” value (johnsongrass [5]; [13]) of the same molecule?
**A.** Its value is 35.

**Q.** What about the “Johnsongrass plant response rating” value (johnsongrass [5]; [14]) of the same molecule?
**A.** Its value is 70.

**Q.** And the “Plant response rating, Johnsongrass” value (johnsongrass [5]; [15])?
**A.** Its value is 25.

**Q.** What about the “Nutsedge, Yellow plant response rating” value (yellow nutsedge [6]; [12]) of the same molecule?
**A.** The value was 0.

**Q.** What about the “Nutsedge, Yellow plant response rating” value (yellow nutsedge [6]; [13]) of the same molecule?
**A.** Its value is 55.

**Q.** And the “Nutsedge, Yellow plant response rating” value (yellow nutsedge [6]; [14])?
**A.** The value was 65.

**Q.** What about the “Plant response rating, Nutsedge, Yellow” value (yellow nutsedge [6]; [15]) of the same molecule?
**A.** Its value is 0.

**Q.** And the “Plant response rating (0 to 100), Wheat” value (wheat, winter [7]; 125 g ai/ha, postemergence)?
**A.** Its value is 0.

**Q.** What about the “Plant response rating, Wheat” value (wheat, winter [7]; 31 g ai/ha, 13 to 15 days) of the same molecule?
**A.** The value was 0.

**Q.** And the “Plant response rating, Wheat” value (wheat, winter [7]; 62 g ai/ha)?
**A.** The value was 0.

**Q.** And the “Corn plant response rating” value (corn [8]; [16])?
**A.** The value was 5.

**Q.** And the “Plant response rating (0 to 100), Corn” value (corn [8]; 125 g ai/ha, postemergence)?
**A.** The value was 5.

**Q.** And the “Plant response rating, Corn” value (corn [8]; [17])?
**A.** The value was 5.

**Q.** What about the “Plant response rating, Corn” value (corn [8]; [18]) of the same molecule?
**A.** The value was 35.

**Q.** What about the “Crabgrass, Large plant response rating” value (large (Lg) crabgrass [9]; [16]) of the same molecule?
**A.** The value was 5.

**Q.** What about the “Plant response rating (0 to 100), Crabgrass, Large” value (large (Lg) crabgrass [9]; 125 g ai/ha, postemergence) of the same molecule?
**A.** Its value is 10.

**Q.** And the “Plant response rating, Crabgrass, Large” value (large (Lg) crabgrass [9]; [17])?
**A.** The value was 5.

**Q.** What about the “Plant response rating, Crabgrass, Large” value (large (Lg) crabgrass [9]; [18]) of the same molecule?
**A.** The value was 10.

**Q.** And the “Foxtail, Giant plant response rating” value (giant foxtail; [16])?
**A.** Its value is 10.

**Q.** What about the “Plant response rating (0 to 100), Foxtail, Giant” value (giant foxtail; 125 g ai/ha, postemergence) of the same molecule?
**A.** Its value is 10.

**Q.** What about the “Plant response rating, Foxtail, Giant” value (giant foxtail; [17]) of the same molecule?
**A.** Its value is 10.

**Q.** What about the “Plant response rating, Foxtail, Giant” value (giant foxtail; [18]) of the same molecule?
**A.** Its value is 10.

**Q.** And the “Johnsongrass plant response rating” value (johnsongrass [10]; [16])?
**A.** The value was 5.

**Q.** What about the “Plant response rating (0 to 100), Johnsongrass” value (johnsongrass [10]; 125 g ai/ha, postemergence) of the same molecule?
**A.** Its value is 5.

**Q.** What about the “Plant response rating, Johnsongrass” value (johnsongrass [10]; [17]) of the same molecule?
**A.** The value was 5.

**Q.** What about the “Plant response rating, Johnsongrass” value (johnsongrass [10]; [18]) of the same molecule?
**A.** The value was 5.

**Q.** And the “Plant response rating (0 to 100), Nutsedge, Yellow” value (yellow nutsedge [11]; 125 g ai/ha, postemergence)?
**A.** The value was 10.

**Q.** What about the “Plant response rating, Nutsedge, Yellow” value (yellow nutsedge [11]; 31 g ai/ha, 13 to 15 days) of the same molecule?
**A.** The value was 5.

**Q.** And the “Plant response rating, Nutsedge, Yellow” value (yellow nutsedge [11]; 62 g ai/ha)?
**A.** The value was 45.
